Experimental data published in US7432392B2, “Ester derivatives and medical use thereof” (Japan Tobacco Inc., priority 2003, dated 2008).

Columns and labels:
[1] = tested on: apolipoprotein B secretion from HepG2 cells; assay: Inhibition of apolipoprotein B secretion from HepG2 cells; assay type: cell-based; details: Homo sapiens, about 20 hours incubation, apo B in supernatant by ELISA
Procedure: HepG2 cells were suspended in Dulbecco's Modified Eagle's Medium (DMEM) (containing 10% fetal bovine serum, 100 units/mL penicillin and 100 μg/mL streptomycin), and placed on a 96-well plate (4×10^4 cells/well), then incubated for 24 hours. After removal of the medium, DMEM was replaced by a medium containing a sample dissolved in DMSO or a medium containing DMSO (concentration of DMSO: 0.5%) and incubation was further performed for about 20 hours, after which the supernatant was recovered, and concentration of apo B in the supernatant was assayed by Enzyme-Linked Immunosorbent Assay (ELISA)
ELISA was carried out as follows. Anti-human apo B monoclonal antibody (0.5 μg/well) diluted with a 50 mM sodium carbonate/sodium bicarbonate buffer was placed in a 96-well plate for ELISA, and allowed to stand at room temperature for 15 hours. After washing the plate, a blocking solution (250 μL/well) was placed in the well, and allowed to stand at room temperature for 1.5 hours. After washing the plate, a standard and a sample (100 μL/well) were placed in the well and allowed to stand at room temperature for 1.5 hours. The standard was prepared by adjusting the concentration of the purified human apo B with the DMEM to 0 to 250 ng/mL. After washing the plate, an anti-human apo B polyclonal antibody labeled with a horse radish peroxidase which was diluted in 1:1000 with DEME (100 μL/well) was added, and allowed to stand at room temperature for 1.5 hours. After washing the plate, 2,2-azinobis(3-ethylbenzothiazoline-6-sulfonic acid) solution (100 μL/well) was placed in the well, and allowed to stand at room temperature for 0.5 hour. The reaction was stopped by addition of 2% oxalic acid (100 μL/well), and absorbency at 405 nm was measured. Concentration of apo B in the sample was calculated on the basis of a standard curve of the standard. Inhibition rate (%) was calculated from the assayed values in accordance with the following equation. Inhibition rate (%)=100×(1 minus (concentration of apo B in sample group/concentration of apo B in DMSO group).
Based on the above equation, 50% inhibition concentration (IC50) was determined.

[2] = Metabolic stability test in small intestine S9 (human); assay type: in vitro ADME; details: Human small intestine S9, 2 mg protein/mL, 37° C.
Procedure: (§1) Human and hamster liver S9 (final concentration: 2 mg protein/mL), and human and hamster small intestine S9 (final concentration: 2 mg protein/mL) were each suspended in 100 mM potassium phosphate buffer (pH 7.4, containing β-nicotinamide adenine dinucleotide phosphate: 1.3 mM, D-glucose-6-phosphate: 3.3 mM, magnesium chloride: 3.3 mM, and glucose-6-phosphate dehydrogenase: 0.4 U/mL). The suspensions were mixed with a solution of a sample (Example 1) in DMSO. The solutions were incubated at 37° C. for 0, 10 and 60 minutes, and an organic solvent was added thereto. The solutions were centrifuged, and the concentration of the sample (unchanged form) in the supernatant was determined by high performance liquid chromatography/mass spectrometry (LC/MS). Based on the data obtained, remaining rate (%) was calculated according to the following equation. Remaining rate(%)=amount of sample 10 or 60 minutes after incubation/amount of sample at zero time after incubation×100

[3] = Metabolic stability test in liver S9 (hamster); assay type: in vitro ADME; details: Hamster liver S9, 2 mg protein/mL, 37° C.
Procedure: as §1

## CCOC(=O)C(COC(=O)Cc1ccc(NC(=O)c2ccccc2-c2ccc(C(F)(F)F)cc2)c(OC(C)=O)c1)(C(=O)OCC)c1ccccc1 [Example 1, 2-(2-{3-acetoxy-4-[(4′-trifluoromethyl-biphenyl-2-carbonyl)amino]phenyl}acetoxymethyl)-2-phenylmalonic acid diethyl ester]
[1]
  IC50: < 1 µM
[2]; 10 minutes
  Remaining rate (%) after 10 minutes: 7.5%
[2]; 60 minutes
  Remaining rate (%) after 60 minutes: 1.1%
[3]; 10 minutes
  Remaining rate (%) after 10 minutes: 1.6%
[3]; 60 minutes
  Remaining rate (%) after 60 minutes: 0.0%
